Assay results as given in US10907214B2, “Methods for predicting drug responsiveness in cancer patients” (Oncology Venture ApS, priority 2016, dated 2021).

System: patients having breast cancer
Experiment: Clinical trial 2: retrospective analysis, breast cancer patients treated with cisplatin, stratified by biomarkers
Type: in vivo, human
Conditions: Trial 2, breast cancer, neoadj, N=24
Text: Table 5 below summarizes the results of these studies.

SMILES: N.N.[Cl][Pt][Cl] [Cisplatin, cisplatin]
- overall response rate (ORR) (patients predicted in bottom 10% of responsiveness): ORR 50%
- overall response rate (ORR) (patients predicted in top 10% of responsiveness): ORR 100%
